Reference: patent publication US20220226298A1, “GPR40 AGONISTS” (Kallyope, Inc., priority 2019, published 2022)

What was measured:
[1] = In vivo plasma levels in mice; settings: mouse, oral, 30 mg/kg; male C57BL/6J mice, dose 30 mpk, plasma concentration of test article (parent) 30 min post dose; read-out: 30 min Exposure: Parent
Procedure: Male C57BL/6J mice 10-12 weeks old were acclimated to dosing (e.g., oral gavage) 2-3 times prior to the study. On the day of the study, food was removed for 5-6 hours, then the mice were dosed with test article or vehicle (e.g., by oral gavage at a volume of 10 mL/kg). Animals were euthanized with carbon dioxide typically 30 min post dose. Blood was collected via cardiac puncture for measurement of plasma concentrations of test article (parent) or metabolite resulting from ester cleavage.

[2] = target: T1, human GPR40 (Homo sapiens, UniProt O14842); test: Inositol phosphate accumulation assay (IP1 HTRF) in CHO-K1 cells expressing human GPR40; type: cell-based; settings: 90 min stimulation
T1 construct: host or cells: CHO-K1
Procedure: CHO-KI cells expressing human GPR40 were purchased from DiscoverX (95-1005C2). HEK293 cells expressing mouse FFAR1 were prepared using a mouse FFAR1 carrying plasmid purchased from OriGene Technologies (MR222997). The cells were transfected using Lipofectamine 2000 using manufacturer instructions and stable cell line was established from a single cell using geneticine selection. Assay ready frozen (ARF) cells were prepared and used throughout the study.
The assay was performed in a 384-well plate format using IP1 assay kit from Cis-Bio. ARF cells expressing FFAR1 (mouse and human) were thawed, washed and then plated in the appropriate medium (F12 based medium for CHO hFFAR1 and DMEM based medium for HEK293 mFFAR1—both were supplemented with 10% FBS and penicillin/streptomycin). 20 μL of 3.5×10^5 cells/mL were plated on a Poly D-Lysine coated 384-well white plate. The cells were then incubated for 16 hr at 37° C./5% CO2. After 16 hr the medium was removed and 15 μL of stimulation buffer containing the test compounds was added to the cells. The plates were then incubated for 90 min at 37° C./5% CO2. 5 μL of detection buffer (prepared as described in the IP-one kit) was added to each well and the plates were incubated at RT for 1 hr.
[…] was measured using ClarioSTAR plate reader, calculating the ratio between emissions at 665 nm and 620 nm (HTRF ratio). HTRF ratio for positive (Max) and negative (Min) controls were used to normalize HTRF data and generate values for % activity. EC50 and Max activity values were determined using a standard 4-parameter fit.

T1 sequence (O14842 whole entry): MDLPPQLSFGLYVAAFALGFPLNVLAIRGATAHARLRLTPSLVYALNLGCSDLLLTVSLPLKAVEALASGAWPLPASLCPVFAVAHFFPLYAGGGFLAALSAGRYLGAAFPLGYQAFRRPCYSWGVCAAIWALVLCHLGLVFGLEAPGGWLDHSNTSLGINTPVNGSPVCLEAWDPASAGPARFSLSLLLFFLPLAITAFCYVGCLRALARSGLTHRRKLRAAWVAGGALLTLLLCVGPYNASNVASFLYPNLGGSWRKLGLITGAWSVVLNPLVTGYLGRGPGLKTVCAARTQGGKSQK

Row | Structure (SMILES) | concentration at 30 min [1] | EC50 [2]
1 | COc1cc(-c2cc(C)c(C(=O)Oc3cccc([C@@H](CC(=O)O)C4CC4)c3)cc2CN(C(C)C)C(C)C)c(F)cn1 [Compound 19] | – | 0.01 to 0.1 µM
2 | COc1cc(-c2ccc(C(=O)Oc3cccc([C@H](C4CC4)[C@H](C)C(=O)OCCP(=O)(O)O)c3)cc2CN(C(C)C)C(C)C)c(F)cn1 [Compound 68, (2-(((2S, 3R)-3-cyclopropyl-3-(3-((3-((diisopropylamino)methyl)-4-(5-fluoro-2-methoxypyridin-4-yl)benzoyl)oxy)phenyl)-2-methylpropanoyl)oxy)ethyl)phosphonic acid] | – | 0.1 to 0.5 µM
3 | COc1ccc(F)c(-c2ccc(C(=O)Oc3cccc([C@@H](CC(=O)O)C4CC4)c3)cc2)c1 [Compound 1, (S)-3-cyclopropyl-3-(3-((2′-fluoro-5′-methoxy-[1,1′-biphenyl]-4-carbonyl)oxy)phenyl) propanoic acid] | – | 0.01 to 0.1 µM
4 | COc1cc(-c2cnc(C(=O)Oc3cccc([C@@H](CC(=O)O)C4CC4)c3)cn2)c(F)cn1 [Compound 23] | – | > 0.5 µM
5 | COc1cc(-c2ccc(C(=O)Oc3cccc([C@H](C4CC4)[C@H](C)C(=O)O)c3)c(C)c2)c(C(=O)N(CCO)CCO)cn1 [Compound 52] | – | > 0.5 µM
6 | COc1ccc(F)c(-c2nocc2C(=O)Oc2cccc([C@@H](CC(=O)O)C3CC3)c2)c1 [Compound 5, (3S)-3-cyclopropyl-3-[3-[3-(2-fluoro-5-methoxy-phenyl)isoxazole-4-carbonyl]oxyphenyl]propanoic acid] | – | > 0.5 µM
7 | CC(c1cc(C(F)(F)F)ccc1C(F)(F)F)N1CC[C@@H](OC(=O)c2cccc([C@@H](CC(=O)O)C3CC3)c2)C1 (stereo partly shown) [Compound 48] | – | > 0.5 µM
8 | CC(c1cc(C(F)(F)F)ccc1C(F)(F)F)N1CCC(OC(=O)c2cccc([C@@H](CC(=O)O)C3CC3)c2)CC1 (stereo partly drawn) [Compound 46, (3S)-3-(3-(((1-(1-(2,5-bis(trifluoromethyl)phenyl)ethyl)piperidin-4-yl)oxy)carbonyl)phenyl)-3-cyclopropylpropanoic acid] | – | > 0.5 µM
9 | COc1ccc(F)c(-c2cc(C(=O)Oc3cccc([C@@H](CC(=O)O)C4CC4)c3)on2)c1 [Compound 7, (S)-3-cyclopropyl-3-(3-((3-(2-fluoro-5-methoxyphenyl)isoxazole-5-carbonyl)oxy)phenyl)propanoic acid] | – | > 0.5 µM
10 | CCN(Cc1cc(-c2cc(OC)ncc2F)ccc1C(=O)Oc1cccc([C@@H](CC(=O)O)C2CC2)c1)C(C)C [Compound 13] | – | > 0.5 µM
11 | CC(c1cc(C(F)(F)F)ccc1C(F)(F)F)N1CC(OC(=O)c2cccc([C@@H](CC(=O)O)C3CC3)c2)C1 (stereo partly shown) [Compound 47] | – | > 0.5 µM
12 | O=C(O)C[C@H](c1cccc(C(=O)O)c1)C1CC1 [Compound 42] | – | > 0.5 µM
13 | COc1cc(-c2ccc(C(=O)Oc3cccc([C@H](C4CC4)[C@H](C)C(=O)O)c3)cc2CN(C(C)C)C(C)C)ccn1 [Compound 28] | – | ≤ 0.01 µM
14 | COc1cc(-c2cc(F)c(OC(=O)c3cccc([C@H](C4CC4)[C@H](C)C(=O)O)c3)cc2CN(C(C)C)C(C)C)c(F)cn1 [Compound 60] | – | ≤ 0.01 µM
15 | Cc1cc(-c2cc(O)ncc2F)c(CN(C(C)C)C(C)C)cc1C(=O)Oc1cccc([C@H](C2CC2)[C@@](C)(F)C(=O)O)c1 [Compound 64, (2R,3S)-3-cyclopropyl-3-(3-((5-((diisopropylamino)methyl)-4-(5-fluoro-2-hydroxypyridin-4-yl)-2-methylbenzoyl)oxy)phenyl)-2-fluoro-2-methylpropanoic acid] | – | > 0.5 µM
16 | COc1cc(-c2cc(C)c(OC(=O)c3cccc([C@H](C4CC4)[C@H](C)C(=O)O)c3)cc2CN(C(C)C)C(C)C)c(F)cn1 [Compound 61] | – | ≤ 0.01 µM
17 | COc1cc(-c2cc(C)c(C(=O)Oc3cccc([C@H](C4CC4)[C@H](C)C(=O)O)c3)cc2CN(C(C)C)C(C)C)c(F)cn1 [Compound 21, (2S,3R)-3-cyclopropyl-3-(3-((5-((diisopropylamino)methyl)-4-(5-fluoro-2-methoxypyridin-4-yl)-2-methylbenzoyl)oxy)phenyl)-2-methylpropanoic acid] | – | ≤ 0.01 µM
18 | CC(c1cc(C(F)(F)F)ccc1C(F)(F)F)N1CCC(C(=O)Oc2cccc([C@@H](CC(=O)O)C3CC3)c2)C1 (stereo partly drawn) [Compound 8, (3S)-3-(3-((1-(1-(2,5-bis(trifluoromethyl)phenyl)ethyl)pyrrolidine-3-carbonyl)oxy)phenyl)-3-cyclopropylpropanoic acid] | – | 0.01 to 0.1 µM

Second part, the compound after the results:

Row | concentration at 30 min [1] | EC50 [2] | Structure (SMILES)
19 | < 2 nM | ≤ 0.01 µM | COc1cc(-c2ccc(C(=O)Oc3cccc([C@@H](CC(=O)O)C4CC4)c3)cc2CN(C(C)C)C(C)C)c(F)cn1 [Compound 15, (S)-3-cyclopropyl-3-(3-((3-((diisopropylamino)methyl)-4-(5-fluoro-2-methoxypyridin-4-yl)benzoyl)oxy)phenyl)propanoic acid]
20 | < 5 nM | ≤ 0.01 µM | COc1cc(-c2ccc(C(=O)Oc3cccc([C@H](C4CC4)[C@@](C)(F)C(=O)O)c3)cc2CN(C(C)C)C(C)C)c(F)cn1 [Compound 36, (2R,3S)-3-cyclopropyl-3-(3-((3-((diisopropylamino)methyl)-4-(5-fluoro-2-methoxypyridin-4-yl)benzoyl)oxy)phenyl)-2-fluoro-2-methylpropanoic acid]
21 | < 2 nM | ≤ 0.01 µM | COc1cc(-c2ccc(C(=O)Oc3cccc([C@H](C4CC4)[C@H](C)C(=O)O)c3)cc2CN(C(C)C)C(C)C)c(F)cn1 [Compound 26, (2S,3R)-3-cyclopropyl-3-(3-((3-((diisopropylamino)methyl)-4-(5-fluoro-2-methoxypyridin-4-yl)benzoyl)oxy)phenyl)-2-methylpropanoic acid]
22 | – | ≤ 0.01 µM | COc1cc(-c2ccc(C(=O)Oc3cccc([C@H](C4CC4)[C@H](C)C(=O)OCc4oc(=O)oc4C)c3)cc2CN(C(C)C)C(C)C)c(F)cn1 [Compound 65, 3-((1R, 2S)-1-cyclopropyl-2-methyl-3-((5-methyl-2-oxo-1,3-dioxol-4-yl)methoxy)-3-oxopropyl)phenyl 3-((diisopropylamino)methyl)-4-(5-fluoro-2-methoxypyridin-4-yl)benzoate]
23 | – | ≤ 0.01 µM | CCN(Cc1cc(C(=O)Oc2cccc([C@H](C3CC3)[C@@](C)(F)C(=O)O)c2)ccc1-c1cc(OC)ncc1F)C(C)C [Compound 37]
24 | – | ≤ 0.01 µM | COc1cc(-c2ccc(OC(=O)c3cccc([C@H](C4CC4)[C@H](C)C(=O)O)c3)cc2CN(C(C)C)C(C)C)c(F)cn1 [Compound 58]
25 | – | ≤ 0.01 µM | COc1cc(-c2ccc(C(=O)Oc3cccc([C@H](C4CC4)[C@H](C)C(=O)O)c3F)cc2CN(C(C)C)C(C)C)c(F)cn1 [Compound 69, (2S,3R)-3-cyclopropyl-3-[3-[3-[(diisopropylamino)methyl]-4-(5-fluoro-2-methoxy-4-pyridyl)benzoyl]oxy-2-fluoro-phenyl]-2-methyl-propanoic acid]
26 | – | ≤ 0.01 µM | CC(c1cc(C(F)(F)F)ccc1C(F)(F)F)N1CCC(C(=O)Oc2cccc([C@H](C3CC3)[C@H](C)C(=O)O)c2)CC1 (stereo partly drawn) [Compound 22, (2S,3R)-3-(3-((1-(1-(2,5-bis(trifluoromethyl)phenyl)ethyl)piperidine-4-carbonyl)oxy)phenyl)-3-cyclopropyl-2-methylpropanoic acid]
27 | – | ≤ 0.01 µM | CCN(Cc1cc(OC(=O)c2cccc([C@H](C3CC3)[C@H](C)C(=O)O)c2)ccc1-c1cc(OC)ncc1F)C(C)C [Compound 57]
28 | – | ≤ 0.01 µM | CCN(Cc1cc(C(=O)Oc2cccc([C@H](C3CC3)[C@@](C)(F)C(=O)O)c2)ccc1-c1cc(OC)ccc1F)C(C)C [Compound 38]
29 | – | ≤ 0.01 µM | COc1cc(-c2ccc(OC(=O)c3cccc([C@H](C4CC4)[C@@](C)(F)C(=O)O)c3)cc2CN(C(C)C)C(C)C)c(F)cn1 [Compound 63, (2R, 3S)-3-cyclopropyl-3-(3-((3-((diisopropylamino)methyl)-4-(5-fluoro-2-methoxypyridin-4-yl)phenoxy)carbonyl)phenyl)-2-fluoro-2-methylpropanoic acid]
30 | – | ≤ 0.01 µM | COc1cc(-c2cc(F)c(C(=O)Oc3cccc([C@H](C4CC4)[C@@](C)(F)C(=O)O)c3)cc2CN(C(C)C)C(C)C)ccn1 [Compound 39]
31 | – | ≤ 0.01 µM | COc1cc(-c2cc(F)c(C(=O)Oc3cccc([C@H](C4CC4)[C@H](C)C(=O)O)c3)cc2CN(C(C)C)C(C)C)ccn1 [Compound 24]
